Experimental data reported in patent publication US20250270190A1, “KIT INHIBITORS” (BLUEPRINT MEDICINES CORPORATION, priority 2022, published 2025).

What follows are compounds tested against T1, c-kit autophosphorylation (Phospho c-Kit Tyr721) in HMC 1.1 (exon 11/13) cells, V654A (Homo sapiens, UniProt P10721, V560G/V654A) (assay: pKIT Meso Scale Discovery (MSD) assay, inhibition of autophosphorylation of KIT, HMC1.1_V654A). Conditions: Table 1, cell line not named for Table 1, b1056 names pKIT HMC1.1_V654A, read-out: Code (IC50 for inhibition of autophosphorylation of KIT, pKIT MSD assay).
T1 construct: endogenous in cells; host or cells: HMC 1.1 (exon 11/13) cells
T1 sequence (P10721 26-976 V560G/V654A): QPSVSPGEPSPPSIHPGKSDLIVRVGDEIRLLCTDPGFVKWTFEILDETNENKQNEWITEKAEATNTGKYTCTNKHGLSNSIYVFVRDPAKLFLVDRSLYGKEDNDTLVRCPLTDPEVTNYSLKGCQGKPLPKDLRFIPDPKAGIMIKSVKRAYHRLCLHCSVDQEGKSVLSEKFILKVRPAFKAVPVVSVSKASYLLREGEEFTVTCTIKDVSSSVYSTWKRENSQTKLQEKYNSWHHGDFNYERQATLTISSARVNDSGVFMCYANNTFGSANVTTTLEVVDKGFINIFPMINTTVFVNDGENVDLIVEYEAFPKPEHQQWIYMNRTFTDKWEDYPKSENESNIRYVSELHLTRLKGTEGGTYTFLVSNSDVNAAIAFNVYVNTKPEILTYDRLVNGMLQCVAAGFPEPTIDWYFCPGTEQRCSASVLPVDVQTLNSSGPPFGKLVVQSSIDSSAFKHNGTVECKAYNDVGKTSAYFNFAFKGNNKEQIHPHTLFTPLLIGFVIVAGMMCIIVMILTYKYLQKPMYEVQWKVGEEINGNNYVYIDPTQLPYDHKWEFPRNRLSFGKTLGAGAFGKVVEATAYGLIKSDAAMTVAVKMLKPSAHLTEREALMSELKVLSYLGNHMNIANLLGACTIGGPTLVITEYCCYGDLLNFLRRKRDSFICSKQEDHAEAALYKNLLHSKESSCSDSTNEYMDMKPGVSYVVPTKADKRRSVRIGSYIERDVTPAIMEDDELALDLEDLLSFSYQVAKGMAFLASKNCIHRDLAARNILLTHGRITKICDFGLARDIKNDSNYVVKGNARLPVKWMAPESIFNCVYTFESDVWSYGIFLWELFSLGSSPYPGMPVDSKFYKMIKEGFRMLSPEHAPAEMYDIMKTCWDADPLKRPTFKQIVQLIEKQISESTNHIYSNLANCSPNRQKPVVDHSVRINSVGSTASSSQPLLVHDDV
Type: cell-based
Procedure, shortened: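 HMC1.1 cells were serum-starved for 4 h in serum-free, iron-free, phenol red-free IMDM, then treated with compound in dose-response for 90 min at 37 °C. Staurosporine and DMSO served as controls. Lysates were analysed by MSD electrochemiluminescence immunoassay for phospho-c-Kit Tyr721, and % inhibition of autophosphorylation was derived.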

Compound | IC50
CCNc1cc(Nc2cc(N)nc(C(F)F)n2)ncc1C(=O)NC1CC2(CNC2)C1 [Compound 149, 6-((6-amino-2-(difluoromethyl)pyrimidin-4-yl)amino)-4-(ethylamino)-N-(2-azaspiro[3.3]heptan-6-yl)nicotinamide] | > 40 nM
Nc1cc(Nc2cc(NC3CC3)c(C(=O)NCC3CC3)cn2)nc(C(F)F)n1 [Compound 79, 6-((6-amino-2-(difluoromethyl)pyrimidin-4-yl)amino)-4-(cyclopropylamino)-N-(cyclopropylmethyl)nicotinamide] | 10 to 40 nM
CC(C)(O)Cn1cc(-c2cnc(Nc3cc(N)nc(C(F)F)n3)cc2OC(F)F)cn1 [Compound 181, 1-(4-(6-((6-amino-2-(difluoromethyl)pyrimidin-4-yl)amino)-4-(difluoromethoxy)pyridin-3-yl)-1H-pyrazol-1-yl)-2-methylpropan-2-ol] | < 10 nM
CCNc1cc(Nc2cc(N)nc(C(F)F)n2)ncc1C(=O)NC1CC1 [Compound 39, 6-((6-amino-2-(difluoromethyl)pyrimidin-4-yl)amino)-N-cyclopropyl-4-(ethylamino)nicotinamide] | < 10 nM
CN[C@H](C)Cn1cc(-c2cnc(Nc3cc(N)nc(C(F)F)n3)cc2OC(F)(F)F)cn1 (single isomer, unassigned) [Compound 196, (R)-2-(difluoromethyl)-N4-(5-(1-(2-(methylamino)propyl)-1H-pyrazol-4-yl)-4-(trifluoromethoxy)pyridin-2-yl)pyrimidine-4,6-diamine or (S)-2-(difluoromethyl)-N4-(5-(1-(2-(methylamino)propyl)-1H-pyrazol-4-yl)-4-(trifluoromethoxy)pyridin-2-yl)pyrimidine-4,6-diamine] | < 10 nM
Nc1cc(Nc2cc(NC3CC3)c(C(=O)N[C@H]3C[C@@H](O)C3)cn2)nc(C(F)F)n1 [Compound 123, 6-((6-amino-2-(difluoromethyl)pyrimidin-4-yl)amino)-4-(cyclopropylamino)-N-((1s,3s)-3-hydroxycyclobutyl)nicotinamide] | 10 to 40 nM
CNC(=O)c1cnc(Nc2cc(N)nc([C@H](C)F)n2)cc1NC(C)C [Compound 21, (S)-6-((6-amino-2-(1-fluoroethyl)pyrimidin-4-yl)amino)-4-(isopropylamino)-N-methylnicotinamide] | < 10 nM
CNC(=O)c1cnc(Nc2cc(N)nc(C(F)F)n2)cc1NC1CC1 [Compound 23, 6-((6-amino-2-(difluoromethyl)pyrimidin-4-yl)amino)-4-(cyclopropylamino)-N-methylnicotinamide] | < 10 nM
C[C@@H](CF)Nc1cc(Nc2cc(N)nc(C(F)F)n2)ncc1C(=O)NC1CC1 [Compound 90, (S)-6-((6-amino-2-(difluoromethyl)pyrimidin-4-yl)amino)-N-cyclopropyl-4-((1-fluoropropan-2-yl)amino)nicotinamide] | < 10 nM
CNC(=O)c1cnc(Nc2cc(N)nc(C(F)F)n2)cc1N[C@@H](C)C(F)F [Compound 74, (S)-6-((6-amino-2-(difluoromethyl)pyrimidin-4-yl)amino)-4-((1,1-difluoropropan-2-yl)amino)-N-methylnicotinamide] | < 10 nM
CNC(=O)c1cnc(Nc2cc(N)nc(C(F)F)n2)cc1NC1(C)CCOC1 (stereo not shown) [Compound 89, 6-((6-amino-2-(difluoromethyl)pyrimidin-4-yl)amino)-N-methyl-4-((3-methyltetrahydrofuran-3-yl)amino)nicotinamide] | < 10 nM
CNC(=O)c1cnc(Nc2cc(N)nc(C(F)F)n2)cc1NCCC(C)C [Compound 66, 6-((6-amino-2-(difluoromethyl)pyrimidin-4-yl)amino)-4-(isopentylamino)-N-methylnicotinamide] | 10 to 40 nM

Further lines, results first:

IC50 | Compound
< 10 nM | CN(CCn1cc(-c2cnc(Nc3cc(N)nc(C(F)F)n3)cc2OC2CC2)cn1)CC(F)(F)F [Compound 203, N4-(4-cyclopropoxy-5-(1-(2-(methyl(2,2,2-trifluoroethyl)amino)ethyl)-1H-pyrazol-4-yl)pyridin-2-yl)-2-(difluoromethyl)pyrimidine-4,6-diamine]
> 40 nM | COc1cc(Nc2cc(N)nc(CF)n2)ncc1-c1cnn(C2CNC2)c1 [Compound 50, N4-(5-(1-(azetidin-3-yl)-1H-pyrazol-4-yl)-4-methoxypyridin-2-yl)-2-(fluoromethyl)pyrimidine-4,6-diamine]
< 10 nM | Nc1cc(Nc2cc(OC3CC3)c(-c3cnn(CCN4CCC4)c3)cn2)nc(C(F)F)n1 [Compound 182, N4-(5-(1-(2-(azetidin-1-yl)ethyl)-1H-pyrazol-4-yl)-4-cyclopropoxypyridin-2-yl)-2-(difluoromethyl)pyrimidine-4,6-diamine]
10 to 40 nM | CN1CC(n2cc(-c3cnc(Nc4cc(N)nc(C(F)F)n4)cc3OC[C@H]3CCCO3)cn2)C1 [Compound 202, (R)-2-(difluoromethyl)-N4-(5-(1-(1-methylazetidin-3-yl)-1H-pyrazol-4-yl)-4-((tetrahydrofuran-2-yl)methoxy)pyridin-2-yl)pyrimidine-4,6-diamine]
< 10 nM | Cn1cc(-c2cnc(Nc3cc(N)nc(C(F)F)n3)cc2OC2CCOC2)cn1 (stereo not shown) [Compound 106, 2-(difluoromethyl)-N4-(5-(1-methyl-1H-pyrazol-4-yl)-4-((tetrahydrofuran-3-yl)oxy)pyridin-2-yl)pyrimidine-4,6-diamine]
< 10 nM | Nc1cc(Nc2cc(OC(F)F)c(-c3cnn(C4CC4)c3)cn2)nc(C(F)F)n1 [Compound 127, N4-(5-(1-cyclopropyl-1H-pyrazol-4-yl)-4-(difluoromethoxy)pyridin-2-yl)-2-(difluoromethyl)pyrimidine-4,6-diamine]
< 10 nM | Cn1cc(-c2cnc(Nc3cc(N)nc(C(F)F)n3)cc2OC(F)(F)F)cn1 [Compound 95, 2-(difluoromethyl)-N4-(5-(1-methyl-1H-pyrazol-4-yl)-4-(trifluoromethoxy)pyridin-2-yl)pyrimidine-4,6-diamine]
< 10 nM | CC(O)Cn1cc(-c2cnc(Nc3cc(N)nc(C(F)F)n3)cc2OC(F)F)cn1 (stereo not shown) [Compound 155, 1-(4-(6-((6-amino-2-(difluoromethyl)pyrimidin-4-yl)amino)-4-(difluoromethoxy)pyridin-3-yl)-1H-pyrazol-1-yl)propan-2-ol]
< 10 nM | CCOc1cc(Nc2cc(N)nc(C(F)F)n2)ncc1-c1cnn(CC(C)(C)O)c1 [Compound 152, 1-(4-(6-((6-amino-2-(difluoromethyl)pyrimidin-4-yl)amino)-4-ethoxypyridin-3-yl)-1H-pyrazol-1-yl)-2-methylpropan-2-ol]
< 10 nM | COc1cc(Nc2cc(N)nc(C(F)F)n2)ncc1-c1cnn(C2CC2)c1 [Compound 52, N4-(5-(1-cyclopropyl-1H-pyrazol-4-yl)-4-methoxypyridin-2-yl)-2-(difluoromethyl)pyrimidine-4,6-diamine]
